# Test results published in patent US11795460B2, “Compositions and methods for TTR gene editing and treating ATTR amyloidosis” (Intellia Therapeutics, Inc., priority 2017, dated 2023).
# What was measured:
# TTR [1] = assay: TTR editing in HUH7 cells transfected with Spy Cas9 mRNA and dgRNAs (Table 5); assay type: cell-based, human; conditions: HUH7 cells co-transfected with Spy Cas9 mRNA (SEQ ID NO:2) and dgRNAs
# Summary of the method: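 HUH7 cells were transfected sequentially with Spy Cas9 mRNA (100 ng) then crRNA and tracer RNA (25 nM each) by lipofection. Genomic DNA was collected 24, 48 or 72 h later. Target site was PCR-amplified and NGS-sequenced, and percent editing was taken as reads with indels or substitutions over total reads.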
# TTR [2] = assay: TTR editing in primary cyno hepatocytes electroporated with Spy Cas9 protein and dgRNAs (Tables 10, 11); assay type: cell-based, cynomolgus monkey; conditions: Table 10; primary cyno hepatocytes electroporated with Spy Cas9 protein (RNP) and dgRNAs
# Summary of the method: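 Primary human or cynomolgus hepatocytes electroporated (Lonza P3 buffer, program EX-147) with Spy Cas9 RNP carrying pre-annealed crRNA/trRNA dual guides. Genomic DNA harvested at 24, 48 or 72 h; target amplicons sequenced by Illumina MiSeq. Percent editing = reads with indels or substitutions over total reads.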
Sequence,Avg % Deletion (TTR [1]),Avg % Edit (TTR [1]),Avg % Insert (TTR [1]),Avg % Deletion (TTR [2]),Avg % Edit (TTR [2]),Avg % Insert (TTR [2])
"AAGUGCCUUCCAGUAAGAUU (tested as dual guide RNA, chemistry not given here) [CR003368]",29.69%,31.57%,3.08%,0.26%,18.56%,18.30%
"GAAAGGCUGCUGAUGACACC (tested as dual guide RNA, chemistry not given here) [CR003352]",32.79%,39.68%,7.62%,0.09%,1.25%,1.16%
"UCUAGAACUUUGACCAUCAG (tested as dual guide RNA, chemistry not given here) [CR003345]",32.18%,72.43%,41.33%,22.19%,52.92%,30.74%
"CCUCUGCAUGCUCAUGGAAU (tested as dual guide RNA, chemistry not given here) [CR003370]",35.55%,39.16%,4.83%,0.12%,2.52%,2.40%
"AAAUAGACACCAAAUCUUAC (tested as dual guide RNA, chemistry not given here) [CR003366]",50.32%,69.98%,20.77%,0.90%,18.52%,17.62%
"ACACAAAUACCAGUCCAGCA (tested as dual guide RNA, chemistry not given here) [CR003339]",20.13%,79.97%,60.55%,4.02%,8.95%,4.93%
"GCCGUGGUGGAAUAGGAGUA (tested as dual guide RNA, chemistry not given here) [CR003387]",25.55%,25.64%,0.23%,0.17%,4.72%,4.55%
"AGUCCCUCAUUCCUUGGGAU (tested as dual guide RNA, chemistry not given here) [CR003392]",26.98%,28.37%,1.93%,0.38%,7.02%,6.63%
"UGGACUGGUAUUUGUGUCUG (tested as dual guide RNA, chemistry not given here) [CR003340]",14.23%,46.93%,33.33%,4.80%,12.53%,7.72%
"AAUAGGAGUAGGGGCUCAGC (tested as dual guide RNA, chemistry not given here) [CR003384]",16.29%,17.03%,0.84%,1.25%,3.75%,2.50%
"CUCUGCAUGCUCAUGGAAUG (tested as dual guide RNA, chemistry not given here) [CR003369]",17.38%,24.19%,7.12%,0.25%,1.53%,1.28%
"AAAGGCUGCUGAUGACACCU (tested as dual guide RNA, chemistry not given here) [CR003353]",62.87%,69.18%,7.73%,0.08%,4.75%,4.67%
"UUUGACCAUCAGAGGACACU (tested as dual guide RNA, chemistry not given here) [CR003344]",54.40%,64.02%,10.76%,1.91%,35.72%,33.81%
"AUGCAGCUCUCCAGACUCAC (tested as dual guide RNA, chemistry not given here) [CR003358]",26.60%,36.50%,10.53%,1.46%,20.47%,19.01%
"CCUCCUCUGCCUUGCUGGAC (tested as dual guide RNA, chemistry not given here) [CR003336]",26.56%,30.05%,4.14%,0.07%,8.18%,8.10%
"AGUGAGUCUGGAGAGCUGCA (tested as dual guide RNA, chemistry not given here) [CR003359]",45.97%,66.75%,21.73%,5.51%,46.17%,40.66%
"CAUUGAUGGCAGGACUGCCU (tested as dual guide RNA, chemistry not given here) [CR003347]",30.79%,32.16%,1.64%,0.25%,72.41%,72.15%
"AAAGUUCUAGAUGCUGUCCG (tested as dual guide RNA, chemistry not given here) [CR003346]",6.97%,18.07%,13.17%,0.09%,1.91%,1.82%
"CCAGUCCAGCAAGGCAGAGG (tested as dual guide RNA, chemistry not given here) [CR003337]",48.95%,55.72%,8.34%,0.84%,24.94%,24.10%
"GGAGUAGGGGCUCAGCAGGG (tested as dual guide RNA, chemistry not given here) [CR003382]",34.47%,34.47%,0.14%,2.33%,10.86%,8.54%
"CUGAGGAGGAAUUUGUAGAA (tested as dual guide RNA, chemistry not given here) [CR003364]",23.03%,47.13%,24.68%,5.35%,19.62%,14.27%
"AUACCAGUCCAGCAAGGCAG (tested as dual guide RNA, chemistry not given here) [CR003338]",67.06%,75.64%,10.22%,0.05%,44.94%,44.89%
"UGUAGAAGGGAUAUACAAAG (tested as dual guide RNA, chemistry not given here) [CR003365]",43.82%,60.68%,17.77%,0.97%,10.31%,9.33%
"UACUCACCUCUGCAUGCUCA (tested as dual guide RNA, chemistry not given here) [CR003372]",17.25%,21.52%,4.89%,0.32%,2.15%,1.83%
